Measurements: patent US20220193081A1 (Ellamed IP & Services PTE. LTD., priority 2019, published 2022)

What was measured:
[1] = HPLC assay on storage of sildenafil citrate with equal concentration of sucralose in pH adjusted 50% ethanol (Example 2); type: physicochemical; details: for Impurity B / Impurity D / sildenafil assay: 25° C., Day 285
Description: At room temperature, a phosphate buffer was prepared by weighing 3.9 g of NaH2PO4.2H2O into a 500 mL volumetric flask and adding approximately 300 mL of purified water until the phosphate fully dissolved. The pH was then adjusted to 7 with the introduction of NaOH and dilute to the requisite volume by the further addition of purified water.
A 50% ethanol mixture was prepared by introducing either purified water, taken from a MilliQ™ unit or phosphate buffer, to equivalent volumes of Ph.Eur. grade absolute alcohol. The pH of the resultant mixture was then adjusted by using either NaOH 1N solutions and/or Sodium Citrate 1N solutions to reach predetermined pH values.
Samples of sucralose were then dissolved in the pH adjusted 50% ethanol, whilst stirred with a magnetic stirrer and a needle, to a predetermined concentration. […] After preparation, the solutions were each filtered through PDVF 0.22 micro filter of 13 mm in size and placed in polypropylene containers of adequate volume.
Before being placed on storage, and at time points 7 and 42 days, the concentration of sildenafil in the mixture was assayed using HPLC. The samples were then stored at either −20° C., 2-8° C. or 25° C. for periods of up to 42 days. Periodically, the samples were visually inspected for evidence of precipitation or crystallization. […]
The samples of 21 mg/ml at a pH of 5.6 were maintained in stability testing at 25° C. for a total of 285 days.

[2] = Visual inspection on storage of sildenafil citrate in buffered 60% aqueous ethanol (Example 4); type: physicochemical; details: pH 5.5, NaOH
Description: Before being placed on storage, and at time points 7 and 42 days, the concentration of sildenafil in the mixtures were assayed using HPLC. The samples were then stored at either −20° C., 2-8° C. or 25° C. for periods of up to 42 days. Periodically, the samples were visually inspected for evidence of crystallization.

[3] = 21 mg/ml, pH 5.6, Sodium Citrate

CCCc1nn(C)c2c(=O)nc(-c3cc(S(=O)(=O)N4CCN(C)CC4)ccc3OCC)[nH]c12.O=C(O)CC(O)(CC(=O)O)C(=O)O [sildenafil citrate, 1-[[3-(4,7-Dihydro-1-methyl-7-oxo-3-propyl-1H-pyrazolo[4,3-d]pyrimidin-5-yl)-4-ethoxyphenyl]sulfonyl]-4-methylpiperazine citrate salt]
concentration of sildenafil by HPLC ([1]; 18 mg/ml, pH 5.6, Sodium Citrate, 25 ° C., Day 42): 17910 µg/mL
concentration of sildenafil by HPLC ([1]; 18 mg/ml, pH 5.6, Sodium Citrate, Day 0): 18190 µg/mL
concentration of sildenafil by HPLC ([1]; 18 mg/ml, pH 5.63, NaOH, 50% ethanol/phosphate buffer, 2-8 ° C., Day 7): 18010 µg/mL
concentration of sildenafil by HPLC ([1]; 18 mg/ml, pH 5.63, NaOH, 50% ethanol/phosphate buffer, 25 ° C., Day 7): 18040 µg/mL
concentration of sildenafil by HPLC ([1]; 18 mg/ml, pH 5.63, NaOH, 50% ethanol/phosphate buffer, Day 0): 18180 µg/mL
concentration of sildenafil by HPLC ([1]; 18 mg/ml, pH 6.0, Sodium Citrate, 2-8 ° C., Day 7): 14950 µg/mL
concentration of sildenafil by HPLC ([1]; 18 mg/ml, pH 6.0, Sodium Citrate, 25 ° C., Day 7): 15080 µg/mL
concentration of sildenafil by HPLC ([1]; 18 mg/ml, pH 6.0, Sodium Citrate, Day 0): 17760 µg/mL
concentration of sildenafil by HPLC ([1]; 21 mg/ml, pH 5.29, NaOH, 50% ethanol/phosphate buffer, 2-8 ° C., Day 7): 20970 µg/mL
concentration of sildenafil by HPLC ([1]; 21 mg/ml, pH 5.29, NaOH, 50% ethanol/phosphate buffer, 25 ° C., Day 7): 20980 µg/mL
concentration of sildenafil by HPLC ([1]; 21 mg/ml, pH 5.29, NaOH, 50% ethanol/phosphate buffer, Day 0): 20940 µg/mL
concentration of sildenafil by HPLC ([1]; 21 mg/ml, pH 5.5, NaOH, 2-8 ° C., Day 7): 20860 µg/mL
concentration of sildenafil by HPLC ([1]; 21 mg/ml, pH 5.5, NaOH, 25 ° C., Day 7): 20970 µg/mL
concentration of sildenafil by HPLC ([1]; 21 mg/ml, pH 5.5, NaOH, Day 0): 21110 µg/mL
concentration of sildenafil by HPLC ([1]; 21 mg/ml, pH 5.5, Sodium Citrate, 2-8 ° C., Day 7): 21140 µg/mL
concentration of sildenafil by HPLC ([1]; 21 mg/ml, pH 5.5, Sodium Citrate, 25 ° C., Day 7): 21220 µg/mL
concentration of sildenafil by HPLC ([1]; 21 mg/ml, pH 5.5, Sodium Citrate, Day 0): 21320 µg/mL
concentration of sildenafil by HPLC ([1]; 21 mg/ml, pH 5.6, NaOH, 2-8 ° C., Day 7): 21040 µg/mL
concentration of sildenafil by HPLC ([1]; 21 mg/ml, pH 5.6, NaOH, 2-8 ° C., Day 42): 21430 µg/mL
concentration of sildenafil by HPLC ([1]; 21 mg/ml, pH 5.6, NaOH, 25 ° C., Day 7): 21020 µg/mL
concentration of sildenafil by HPLC ([1]; 21 mg/ml, pH 5.6, NaOH, 25 ° C., Day 42): 21320 µg/mL
Impurity B ([1]; 21 mg/ml, pH 5.6, NaOH): 0.00
Impurity D ([1]; 21 mg/ml, pH 5.6, NaOH): 0.02
sildenafil assay ([1]; 21 mg/ml, pH 5.6, NaOH): 21.16
concentration of sildenafil by HPLC ([1]; 21 mg/ml, pH 5.6, NaOH, 50% ethanol/phosphate buffer, 2-8 ° C., Day 7): 20930 µg/mL
concentration of sildenafil by HPLC ([1]; 21 mg/ml, pH 5.6, NaOH, 50% ethanol/phosphate buffer, 25 ° C., Day 7): 20990 µg/mL
concentration of sildenafil by HPLC ([1]; 21 mg/ml, pH 5.6, NaOH, 50% ethanol/phosphate buffer, Day 0): 20970 µg/mL
concentration of sildenafil by HPLC ([1]; 21 mg/ml, pH 5.6, NaOH, Day 0): 21200 µg/mL
concentration of sildenafil by HPLC ([1]; 21 mg/ml, pH 5.6, Sodium Citrate, 2-8 ° C., Day 7): 20990 µg/mL
concentration of sildenafil by HPLC ([1]; 21 mg/ml, pH 5.6, Sodium Citrate, 2-8 ° C., Day 42): 21410 µg/mL
concentration of sildenafil by HPLC ([1]; 21 mg/ml, pH 5.6, Sodium Citrate, 25 ° C., Day 7): 21060 µg/mL
concentration of sildenafil by HPLC ([1]; 21 mg/ml, pH 5.6, Sodium Citrate, 25 ° C., Day 42): 21270 µg/mL
Impurity B [1, 3]: 0.01
Impurity D [1, 3]: 0.02
sildenafil assay [1, 3]: 21.14
concentration of sildenafil by HPLC ([1]; 21 mg/ml, pH 5.6, Sodium Citrate, Day 0): 21260 µg/mL
concentration of sildenafil by HPLC ([1]; 21 mg/ml, pH 5.8, NaOH, 2-8 ° C., Day 7): 20950 µg/mL
concentration of sildenafil by HPLC ([1]; 21 mg/ml, pH 5.8, NaOH, 25 ° C., Day 7): 21730 µg/mL
concentration of sildenafil by HPLC ([1]; 21 mg/ml, pH 5.8, NaOH, Day 0): 21150 µg/mL
concentration of sildenafil by HPLC ([1]; 21 mg/ml, pH 5.8, Sodium Citrate, 2-8 ° C., Day 7): 20960 µg/mL
concentration of sildenafil by HPLC ([1]; 21 mg/ml, pH 5.8, Sodium Citrate, 25 ° C., Day 7): 21070 µg/mL
concentration of sildenafil by HPLC ([1]; 21 mg/ml, pH 5.8, Sodium Citrate, Day 0): 21080 µg/mL
concentration of sildenafil by HPLC ([1]; 21 mg/ml, pH 6.01, NaOH, 50% ethanol/phosphate buffer, 2-8 ° C., Day 7): 16220 µg/mL
concentration of sildenafil by HPLC ([1]; 21 mg/ml, pH 6.01, NaOH, 50% ethanol/phosphate buffer, 25 ° C., Day 7): 18020 µg/mL
concentration of sildenafil by HPLC ([1]; 21 mg/ml, pH 6.01, NaOH, 50% ethanol/phosphate buffer, Day 0): 20770 µg/mL
breakdown products ([1]; any of the conditions tested, up to 42 days): No breakdown products were identified
visual inspection for crystallization ([2]; 18 mg/ml, with sucralose, 2-8° C.): Prec.
visual inspection for crystallization ([2]; 18 mg/ml, with sucralose, −20° C.): Prec.
visual inspection for crystallization ([2]; 18 mg/ml, without sucralose, 2-8° C.): Prec.
visual inspection for crystallization ([2]; 18 mg/ml, without sucralose, −20° C.): Prec.
visual inspection for crystallization ([2]; 21 mg/ml, without sucralose, 2-8° C.): Prec.
visual inspection for crystallization ([2]; 21 mg/ml, without sucralose, −20° C.): Prec.
